The NIST ThermoML archive (doi:10.1016/j.fluid.2010.10.028)

Test: xn = mol fraction of the nth substance listed
Details: Liquid, Vibrating tube method

CC(C)=O [acetone] + CCCCCCC
Details	mass density [kg/m3]
357.55 K, 24990 kPa, x1 = 0.4	726.84
357.55 K, 24990 kPa, x1 = 0.8992	726.84
357.55 K, 29870 kPa, x1 = 0.492	686.24
357.55 K, 29870 kPa, x1 = 0.611	695.58
357.55 K, 29970 kPa, x1 = 0.4	732.49
357.55 K, 29970 kPa, x1 = 0.8992	732.49
357.55 K, 34840 kPa, x1 = 0.492	691.34
357.55 K, 34860 kPa, x1 = 0.611	700.78
357.55 K, 34960 kPa, x1 = 0.4	737.79
357.55 K, 34960 kPa, x1 = 0.8992	737.79
357.55 K, 39860 kPa, x1 = 0.492	696.15
357.55 K, 39860 kPa, x1 = 0.611	705.69
357.55 K, 39960 kPa, x1 = 0.4	742.81
357.55 K, 39960 kPa, x1 = 0.8992	742.81
357.55 K, 44840 kPa, x1 = 0.492	700.71
357.55 K, 44850 kPa, x1 = 0.611	710.3
357.55 K, 44950 kPa, x1 = 0.4	747.57
357.55 K, 44950 kPa, x1 = 0.8992	747.57
357.55 K, 49840 kPa, x1 = 0.611	714.7
357.55 K, 49940 kPa, x1 = 0.4	752.09
357.55 K, 49940 kPa, x1 = 0.8992	752.09
357.55 K, 54850 kPa, x1 = 0.492	709.15
357.55 K, 54940 kPa, x1 = 0.4	756.43
357.55 K, 54940 kPa, x1 = 0.611	718.97
357.55 K, 54940 kPa, x1 = 0.8992	756.43
357.55 K, 59860 kPa, x1 = 0.492	713.06
357.55 K, 59930 kPa, x1 = 0.4	760.56
357.55 K, 59930 kPa, x1 = 0.611	722.96
357.55 K, 59930 kPa, x1 = 0.8992	760.56
357.55 K, 64830 kPa, x1 = 0.492	716.77
357.55 K, 64890 kPa, x1 = 0.4	764.53
357.55 K, 64890 kPa, x1 = 0.8992	764.53
357.55 K, 69890 kPa, x1 = 0.4	768.36
357.55 K, 69890 kPa, x1 = 0.8992	768.36
357.55 K, 69910 kPa, x1 = 0.611	730.41
357.55 K, 69930 kPa, x1 = 0.492	720.43
357.55 K, 74860 kPa, x1 = 0.4	772.01
357.55 K, 74860 kPa, x1 = 0.8992	772.01
357.55 K, 74890 kPa, x1 = 0.611	733.9
357.55 K, 74910 kPa, x1 = 0.492	723.89
357.55 K, 79780 kPa, x1 = 0.7024	747.09
357.55 K, 79880 kPa, x1 = 0.611	737.26
357.55 K, 84830 kPa, x1 = 0.4	778.99
357.55 K, 84830 kPa, x1 = 0.8992	778.99
357.55 K, 89740 kPa, x1 = 0.7024	753.59
357.55 K, 89810 kPa, x1 = 0.4	782.3
357.55 K, 89810 kPa, x1 = 0.8992	782.3
357.55 K, 89830 kPa, x1 = 0.611	743.64
357.55 K, 94820 kPa, x1 = 0.611	746.67
357.55 K, 94860 kPa, x1 = 0.492	736.47
357.55 K, 99800 kPa, x1 = 0.611	749.61
357.55 K, 99820 kPa, x1 = 0.7024	759.74
357.55 K, 104700 kPa, x1 = 0.4	791.65
357.55 K, 104700 kPa, x1 = 0.8992	791.65
357.55 K, 104820 kPa, x1 = 0.7024	762.65
357.55 K, 109810 kPa, x1 = 0.7024	765.49
357.55 K, 114810 kPa, x1 = 0.7024	768.22
357.55 K, 119810 kPa, x1 = 0.7024	770.9
357.55 K, 124810 kPa, x1 = 0.7024	773.52
357.55 K, 129800 kPa, x1 = 0.7024	776.06
357.56 K, 1060 kPa, x1 = 0.801	677.14
357.56 K, 4870 kPa, x1 = 0.801	683.82
357.56 K, 9840 kPa, x1 = 0.801	691.71
357.56 K, 14860 kPa, x1 = 0.801	698.89
357.56 K, 34850 kPa, x1 = 0.801	722.54
357.56 K, 49850 kPa, x1 = 0.492	705.01
357.56 K, 59820 kPa, x1 = 0.801	745.17
357.56 K, 64910 kPa, x1 = 0.611	726.75
357.56 K, 64920 kPa, x1 = 0.801	749.17
357.56 K, 69910 kPa, x1 = 0.801	752.93
357.56 K, 74880 kPa, x1 = 0.801	756.52
357.56 K, 79850 kPa, x1 = 0.4	775.55
357.56 K, 79850 kPa, x1 = 0.8992	775.55
357.56 K, 79900 kPa, x1 = 0.492	727.2
357.56 K, 84860 kPa, x1 = 0.611	740.5
357.56 K, 84870 kPa, x1 = 0.801	763.37
357.56 K, 84890 kPa, x1 = 0.492	730.4
357.56 K, 89840 kPa, x1 = 0.801	766.6
357.56 K, 89880 kPa, x1 = 0.492	733.49
357.56 K, 94780 kPa, x1 = 0.4	785.51
357.56 K, 94780 kPa, x1 = 0.8992	785.51
357.56 K, 94830 kPa, x1 = 0.801	769.76
357.56 K, 99750 kPa, x1 = 0.4	788.61
357.56 K, 99750 kPa, x1 = 0.8992	788.61
357.56 K, 99810 kPa, x1 = 0.801	772.8
357.56 K, 99830 kPa, x1 = 0.492	739.34
357.56 K, 104780 kPa, x1 = 0.611	752.46
357.56 K, 104780 kPa, x1 = 0.801	775.76
357.56 K, 104810 kPa, x1 = 0.492	742.14
357.56 K, 109680 kPa, x1 = 0.4	794.58
357.56 K, 109680 kPa, x1 = 0.8992	794.58
357.56 K, 109800 kPa, x1 = 0.492	744.86
357.56 K, 109860 kPa, x1 = 0.611	755.29
357.56 K, 114650 kPa, x1 = 0.4	797.46
357.56 K, 114650 kPa, x1 = 0.8992	797.46
357.56 K, 114760 kPa, x1 = 0.492	747.47
357.56 K, 114840 kPa, x1 = 0.801	781.49
357.56 K, 114860 kPa, x1 = 0.611	758
357.56 K, 119620 kPa, x1 = 0.4	800.25
357.56 K, 119620 kPa, x1 = 0.8992	800.25
357.56 K, 119840 kPa, x1 = 0.611	760.62
357.56 K, 119850 kPa, x1 = 0.492	750.09
357.56 K, 124590 kPa, x1 = 0.4	802.96
357.56 K, 124590 kPa, x1 = 0.8992	802.96
357.56 K, 124850 kPa, x1 = 0.492	752.62
357.56 K, 124850 kPa, x1 = 0.611	763.18
357.56 K, 124850 kPa, x1 = 0.801	786.88
357.56 K, 129540 kPa, x1 = 0.4	805.62
357.56 K, 129540 kPa, x1 = 0.8992	805.62
357.56 K, 129840 kPa, x1 = 0.492	755.04
357.56 K, 129850 kPa, x1 = 0.611	765.68
357.57 K, 19850 kPa, x1 = 0.801	705.47
357.57 K, 24850 kPa, x1 = 0.801	711.56
357.57 K, 29850 kPa, x1 = 0.801	717.2
357.57 K, 39860 kPa, x1 = 0.801	727.56
357.57 K, 44860 kPa, x1 = 0.801	732.3
357.57 K, 49830 kPa, x1 = 0.801	736.79
357.57 K, 54840 kPa, x1 = 0.801	741.09
357.57 K, 79870 kPa, x1 = 0.801	760
357.57 K, 109760 kPa, x1 = 0.801	778.61
357.57 K, 119850 kPa, x1 = 0.801	784.21
357.57 K, 129840 kPa, x1 = 0.801	789.47
367.47 K, 1110 kPa, x1 = 0.7024	653.24
367.47 K, 4830 kPa, x1 = 0.7024	660.5
367.47 K, 9820 kPa, x1 = 0.7024	669.16
367.47 K, 14810 kPa, x1 = 0.7024	676.86
367.47 K, 19800 kPa, x1 = 0.7024	683.87
367.47 K, 24870 kPa, x1 = 0.7024	690.44
367.47 K, 29900 kPa, x1 = 0.7024	696.42
367.47 K, 29980 kPa, x1 = 0.4	723.61
367.47 K, 29980 kPa, x1 = 0.8992	723.61
367.47 K, 34870 kPa, x1 = 0.7024	701.98
367.47 K, 39870 kPa, x1 = 0.7024	707.22
367.47 K, 44860 kPa, x1 = 0.7024	712.14
367.47 K, 49850 kPa, x1 = 0.7024	716.78
367.47 K, 54840 kPa, x1 = 0.7024	721.18
367.47 K, 59880 kPa, x1 = 0.4	753.02
367.47 K, 59880 kPa, x1 = 0.8992	753.02
367.47 K, 64830 kPa, x1 = 0.7024	729.41
367.47 K, 69810 kPa, x1 = 0.7024	733.25
367.47 K, 79780 kPa, x1 = 0.7024	740.5
367.47 K, 89740 kPa, x1 = 0.7024	747.21
367.47 K, 94830 kPa, x1 = 0.7024	750.48
367.47 K, 99830 kPa, x1 = 0.7024	753.58
367.47 K, 104830 kPa, x1 = 0.7024	756.58
367.47 K, 109810 kPa, x1 = 0.7024	759.49
367.47 K, 114820 kPa, x1 = 0.7024	762.32
367.47 K, 119810 kPa, x1 = 0.7024	765.08
367.47 K, 124820 kPa, x1 = 0.7024	767.78
367.47 K, 129810 kPa, x1 = 0.7024	770.39
367.48 K, 1150 kPa, x1 = 0.611	644.69
367.48 K, 5040 kPa, x1 = 0.4	687.92
367.48 K, 5040 kPa, x1 = 0.8992	687.92
367.48 K, 9850 kPa, x1 = 0.611	660.49
367.48 K, 10030 kPa, x1 = 0.4	696.45
367.48 K, 10030 kPa, x1 = 0.8992	696.45
367.48 K, 15010 kPa, x1 = 0.4	704.13
367.48 K, 15010 kPa, x1 = 0.8992	704.13
367.48 K, 19860 kPa, x1 = 0.611	675.16
367.48 K, 20000 kPa, x1 = 0.4	711.11
367.48 K, 20000 kPa, x1 = 0.8992	711.11
367.48 K, 24860 kPa, x1 = 0.611	681.55
367.48 K, 25000 kPa, x1 = 0.4	717.58
367.48 K, 25000 kPa, x1 = 0.8992	717.58
367.48 K, 29870 kPa, x1 = 0.611	687.49
367.48 K, 34860 kPa, x1 = 0.611	693
367.48 K, 39940 kPa, x1 = 0.4	734.49
367.48 K, 39940 kPa, x1 = 0.8992	734.49
367.48 K, 44850 kPa, x1 = 0.611	703
367.48 K, 44920 kPa, x1 = 0.4	739.45
367.48 K, 44920 kPa, x1 = 0.8992	739.45
367.48 K, 49910 kPa, x1 = 0.4	744.24
367.48 K, 49910 kPa, x1 = 0.8992	744.24
367.48 K, 49940 kPa, x1 = 0.611	707.7
367.48 K, 54900 kPa, x1 = 0.4	748.72
367.48 K, 54900 kPa, x1 = 0.8992	748.72
367.48 K, 54920 kPa, x1 = 0.611	712.06
367.48 K, 59830 kPa, x1 = 0.7024	725.38
367.48 K, 64860 kPa, x1 = 0.4	757.11
367.48 K, 64860 kPa, x1 = 0.8992	757.11
367.48 K, 64900 kPa, x1 = 0.611	720.16
367.48 K, 69840 kPa, x1 = 0.4	761.04
